The values that follow are results of earlier work, collected in publication PMC9663925, “Phase I pharmacokinetic study of an oral, small-molecule MEK inhibitor tunlametinib in patients with advanced NRAS mutant melanoma” (Frontiers in Pharmacology, 2022).

Like-named read-outs stand apart in the source and are kept apart here.

The Tmax is the time from dosing to the highest level. As for `Cn1cnc2c(F)c(Nc3ccc(Br)cc3F)c(C(=O)NOCCO)cc21` [binimetinib], for the setting “ref Bendell et al., 2017”, the Tmax was 1.00 to 3.00 h.
For the molecule `O=C(c1ccc(F)c(F)c1Nc1ccc(I)cc1F)N1CC(O)([C@@H]2CCCCN2)C1` [cobimetinib], the Tmax (ref Rosen et al., 2016) was 2.4 to 3 h.
`Cn1cnc2c(F)c(Nc3ccc(Br)cc3Cl)c(C(=O)NOCCO)cc21` [selumetinib]: the Tmax (ref Adjei et al., 2008) is 1.0 to 3 h.
With `CC(=O)Nc1cccc(-n2c(=O)n(C3CC3)c(=O)c3c(Nc4ccc(I)cc4F)n(C)c(=O)c(C)c32)c1` [trametinib], the time of peak concentration (Tmax) (ref Infante et al., 2012) was 1.0 to 2.08 h.
